For 39 compounds, Dmax, remaining activity and DC50 results are on record in patent US11566022B2, “3-(5-methoxy-1-oxoisoindolin-2-yl)piperidine-2,6-dione derivatives and uses thereof” (NOVARTIS AG, priority 2019, dated 2023).

The assay concerns the target HiBit-WIZ fusion protein (Homo sapiens, UniProt O95785+Q96SW2). The experiment in a line: Quantification of WIZ protein levels in HiBit tag fusion protein assay (WIZ HiBit assay in 293T cells). It is filed as cell-based. Also noted: Dmax: dose or concentration left out as unconfirmed. To be noted: for Dmax / remaining activity at up to 25 µM: HEK-293T, 293T cells; for Dmax: 100 minus Amax, read-out: % degradation of WIZ (100-Amax); for remaining activity at up to 25 µM: DMSO-normalized, curve-fitted percentage of WIZ-HiBit remaining at 25 uM, read-out: WIZ Amax; for DC50: WIZ HiBit assay in 293T cells, 10-point, 5-fold dose response, highest concentration 25 μM, about 18 hours, read-out: WIZ AC50.

Sequence of HiBit-WIZ fusion protein (O95785 whole entry, the tested form may be a part): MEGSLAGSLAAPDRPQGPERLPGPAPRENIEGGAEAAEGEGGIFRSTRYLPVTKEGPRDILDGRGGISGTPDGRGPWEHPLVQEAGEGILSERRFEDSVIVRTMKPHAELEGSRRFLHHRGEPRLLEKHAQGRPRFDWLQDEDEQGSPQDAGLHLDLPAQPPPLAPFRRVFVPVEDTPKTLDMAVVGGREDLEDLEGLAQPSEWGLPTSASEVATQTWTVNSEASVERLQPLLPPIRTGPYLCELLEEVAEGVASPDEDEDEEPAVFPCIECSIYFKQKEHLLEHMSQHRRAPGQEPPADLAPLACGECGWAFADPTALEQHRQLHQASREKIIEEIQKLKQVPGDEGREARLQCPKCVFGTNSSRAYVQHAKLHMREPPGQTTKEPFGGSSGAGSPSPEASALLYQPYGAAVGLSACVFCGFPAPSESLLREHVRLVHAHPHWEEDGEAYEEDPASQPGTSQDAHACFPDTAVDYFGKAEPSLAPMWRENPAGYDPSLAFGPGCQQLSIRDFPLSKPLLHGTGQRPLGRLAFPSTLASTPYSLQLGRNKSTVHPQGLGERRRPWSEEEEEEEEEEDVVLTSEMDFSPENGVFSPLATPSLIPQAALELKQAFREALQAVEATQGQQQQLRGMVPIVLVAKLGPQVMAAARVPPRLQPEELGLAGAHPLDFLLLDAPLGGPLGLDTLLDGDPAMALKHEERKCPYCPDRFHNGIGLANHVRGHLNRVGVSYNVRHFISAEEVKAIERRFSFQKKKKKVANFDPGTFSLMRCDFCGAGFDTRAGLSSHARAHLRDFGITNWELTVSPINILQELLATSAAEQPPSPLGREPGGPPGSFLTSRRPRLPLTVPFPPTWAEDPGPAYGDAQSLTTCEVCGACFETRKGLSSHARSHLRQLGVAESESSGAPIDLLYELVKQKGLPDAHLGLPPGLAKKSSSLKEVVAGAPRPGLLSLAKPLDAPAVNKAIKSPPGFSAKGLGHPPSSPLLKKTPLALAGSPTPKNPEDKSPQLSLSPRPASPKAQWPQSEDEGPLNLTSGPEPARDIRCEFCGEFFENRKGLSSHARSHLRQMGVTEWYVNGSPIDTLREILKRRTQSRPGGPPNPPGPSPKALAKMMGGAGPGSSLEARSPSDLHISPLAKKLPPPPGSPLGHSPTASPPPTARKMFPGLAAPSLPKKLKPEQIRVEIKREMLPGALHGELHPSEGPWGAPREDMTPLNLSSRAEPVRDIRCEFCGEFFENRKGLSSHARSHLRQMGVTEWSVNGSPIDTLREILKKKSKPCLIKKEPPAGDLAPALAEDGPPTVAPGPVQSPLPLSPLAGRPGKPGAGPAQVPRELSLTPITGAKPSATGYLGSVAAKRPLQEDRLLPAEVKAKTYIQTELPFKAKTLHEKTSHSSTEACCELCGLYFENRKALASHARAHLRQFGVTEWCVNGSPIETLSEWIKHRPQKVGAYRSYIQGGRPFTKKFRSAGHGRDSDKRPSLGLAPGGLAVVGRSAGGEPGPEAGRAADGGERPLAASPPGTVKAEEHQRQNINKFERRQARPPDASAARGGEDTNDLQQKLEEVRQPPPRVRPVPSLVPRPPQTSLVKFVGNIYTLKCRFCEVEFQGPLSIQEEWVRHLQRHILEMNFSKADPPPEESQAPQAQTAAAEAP
Sequence of HiBit-WIZ fusion protein (Q96SW2 whole entry, the tested form may be a part): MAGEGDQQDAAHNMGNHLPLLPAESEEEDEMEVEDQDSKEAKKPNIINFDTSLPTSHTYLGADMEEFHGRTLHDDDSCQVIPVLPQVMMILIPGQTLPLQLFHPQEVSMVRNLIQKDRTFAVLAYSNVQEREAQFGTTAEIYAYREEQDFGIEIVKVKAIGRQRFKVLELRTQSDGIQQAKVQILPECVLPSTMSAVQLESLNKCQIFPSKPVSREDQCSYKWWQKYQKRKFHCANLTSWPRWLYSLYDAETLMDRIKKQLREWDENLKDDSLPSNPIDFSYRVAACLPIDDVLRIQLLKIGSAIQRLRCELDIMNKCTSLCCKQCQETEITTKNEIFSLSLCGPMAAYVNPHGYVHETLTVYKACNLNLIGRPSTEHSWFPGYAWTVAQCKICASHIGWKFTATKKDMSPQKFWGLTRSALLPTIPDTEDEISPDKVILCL
Sequence of HiBit-WIZ fusion protein (Q16531 whole entry partner, the tested form may be a part): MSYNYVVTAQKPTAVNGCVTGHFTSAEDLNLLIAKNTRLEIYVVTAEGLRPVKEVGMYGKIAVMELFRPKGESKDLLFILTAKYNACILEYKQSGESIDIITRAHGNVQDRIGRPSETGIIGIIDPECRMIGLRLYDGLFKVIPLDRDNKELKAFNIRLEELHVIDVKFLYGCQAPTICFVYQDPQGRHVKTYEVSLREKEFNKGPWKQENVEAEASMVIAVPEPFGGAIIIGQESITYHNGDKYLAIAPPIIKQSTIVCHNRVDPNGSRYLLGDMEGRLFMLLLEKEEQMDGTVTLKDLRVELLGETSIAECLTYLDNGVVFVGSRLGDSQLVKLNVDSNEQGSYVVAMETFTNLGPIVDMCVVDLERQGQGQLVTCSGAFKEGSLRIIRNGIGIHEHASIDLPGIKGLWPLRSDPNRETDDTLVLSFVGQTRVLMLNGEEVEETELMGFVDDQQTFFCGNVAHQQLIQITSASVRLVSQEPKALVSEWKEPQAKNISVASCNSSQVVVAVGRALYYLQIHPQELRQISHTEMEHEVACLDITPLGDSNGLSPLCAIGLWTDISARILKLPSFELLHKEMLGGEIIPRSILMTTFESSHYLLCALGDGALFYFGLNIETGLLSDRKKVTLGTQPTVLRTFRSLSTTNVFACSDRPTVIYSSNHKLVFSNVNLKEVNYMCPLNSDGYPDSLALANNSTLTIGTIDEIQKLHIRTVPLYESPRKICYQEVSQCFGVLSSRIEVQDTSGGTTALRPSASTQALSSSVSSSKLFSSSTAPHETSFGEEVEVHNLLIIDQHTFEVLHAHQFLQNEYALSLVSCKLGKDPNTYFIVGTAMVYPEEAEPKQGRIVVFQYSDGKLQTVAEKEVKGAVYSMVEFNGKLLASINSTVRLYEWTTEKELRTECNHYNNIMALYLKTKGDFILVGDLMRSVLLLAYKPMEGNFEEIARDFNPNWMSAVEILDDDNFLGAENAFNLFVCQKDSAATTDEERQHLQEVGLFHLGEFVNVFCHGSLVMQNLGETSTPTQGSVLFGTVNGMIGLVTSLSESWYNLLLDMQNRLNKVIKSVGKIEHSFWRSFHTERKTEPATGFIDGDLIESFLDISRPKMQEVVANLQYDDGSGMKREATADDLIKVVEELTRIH

Regarding `Cn1c(CN2CCCC[C@H]2COc2ccc3c(c2)CN(C2CCC(=O)NC2=O)C3=O)nc2ccccc21` (stereo partly drawn) [Compound I-50ap], the Dmax turned out to be 30.1%, the remaining activity at up to 25 µM stood at 69.9% and the DC50 was over 25 µM.
For `CC(C)(C)OC(=O)NC1(CN2CCCC[C@H]2COc2ccc3c(c2)CN(C2CCC(=O)NC2=O)C3=O)CCCC1` (stereo partly drawn) [Compound I-50aq], in that order: 15.4%, 84.6% and over 25 µM.
For `CN(C)c1ncc(CN2CCCC[C@@H]2COc2ccc3c(c2)CN(C2CCC(=O)NC2=O)C3=O)cn1` (stereo partly drawn) [Compound I-50ar] the same measures were 78.2%, 21.8% and 1.14 µM.
As to `CCN(CC)c1ccc(CN2CCCC[C@H]2COc2ccc3c(c2)CN(C2CCC(=O)NC2=O)C3=O)cn1` (stereo partly drawn) [Compound I-50as], the Dmax is 84.3%, the remaining activity at up to 25 µM turned out to be 15.7% and the DC50 was 0.327 µM.
For `Cc1nnsc1CN1CCCC[C@H]1COc1ccc2c(c1)CN(C1CCC(=O)NC1=O)C2=O` (stereo partly drawn) [Compound I-50at] the same measures were 9.8%, 90.2% and over 25 µM.
In the case of `CCOC(=O)c1cccc2[nH]nc(CN3CCCC[C@H]3COc3ccc4c(c3)CN(C3CCC(=O)NC3=O)C4=O)c12` (stereo partly drawn) [Compound I-50au], the Dmax came to 24.2%, the remaining activity at up to 25 µM is 75.8% and the DC50 is over 25 µM.
For `N#Cc1cccc(Cn2cccc(CN3CCCC[C@H]3COc3ccc4c(c3)CN(C3CCC(=O)NC3=O)C4=O)c2=O)c1` (stereo partly drawn) [Compound I-50aw], in that order: 24.5%, 75.5% and over 25 µM.
For `O=C1CCC(N2Cc3cc(OC[C@H]4CCCCN4Cc4nccn4Cc4ccccc4)ccc3C2=O)C(=O)N1` (stereo partly drawn) [Compound I-50ax], the Dmax turned out to be 92.5%, the remaining activity at up to 25 µM is 7.5% and the DC50 is 0.149 µM.
For `COC(=O)c1nn(-c2cccc(C(F)(F)F)c2)cc1CN1CCCC[C@H]1COc1ccc2c(c1)CN(C1CCC(=O)NC1=O)C2=O` (stereo partly drawn) [Compound I-50ay], in that order: 25.7%, 74.3% and over 25 µM.
For `O=C1CCC(N2Cc3cc(OC[C@@H]4CCCCN4Cc4ccc(O)c(Cl)c4)ccc3C2=O)C(=O)N1` (stereo partly drawn) [Compound I-50b], in that order: 83%, 17% and 1.48 µM.
For the compound `Cc1nc(-c2cccc(CN3CCCC[C@H]3COc3ccc4c(c3)CN(C3CCC(=O)NC3=O)C4=O)c2)no1` (stereo partly drawn) [Compound I-50bb], the Dmax is 56.8%, the remaining activity at up to 25 µM was found to be 43.2% and the DC50 was found to be 18.3 µM.
Take `Cn1nc(CN2CCCC[C@H]2COc2ccc3c(c2)CN(C2CCC(=O)NC2=O)C3=O)cc1-c1ccccc1` (stereo partly drawn) [Compound I-50bc]: the Dmax came to 93.4%, the remaining activity at up to 25 µM turned out to be 6.6% and the DC50 is 0.058 µM.
For `NS(=O)(=O)c1cc(CN2CCCC[C@H]2COc2ccc3c(c2)CN(C2CCC(=O)NC2=O)C3=O)ccc1Cl` (stereo partly drawn) [Compound I-50bd], in that order: 41.1%, 58.9% and over 25 µM.
For `Nc1ncc(CN2CCCC[C@H]2COc2ccc3c(c2)CN(C2CCC(=O)NC2=O)C3=O)cn1` (stereo partly drawn) [Compound I-50be], in that order: 41.9%, 58.1% and over 25 µM.
For `COc1ccc(CN2CCCC[C@H]2COc2ccc3c(c2)CN(C2CCC(=O)NC2=O)C3=O)cn1` (stereo partly drawn) [Compound I-50bf] the same measures were 50.9%, 49.1% and over 25 µM.
Regarding `O=C1CCC(N2Cc3cc(OC[C@H]4CCCCN4CC4CCN(Cc5ccccc5)CC4)ccc3C2=O)C(=O)N1` (stereo partly drawn) [Compound I-50bg], the Dmax came out at 98%, the remaining activity at up to 25 µM was found to be 2% and the DC50 was 0.031 µM.
`COC(=O)c1ccc(Oc2ccc(CN3CCCC[C@@H]3COc3ccc4c(c3)CN(C3CCC(=O)NC3=O)C4=O)cc2)cc1` (stereo partly drawn) [Compound I-50bh]: the Dmax amounted to 99.9%, the remaining activity at up to 25 µM turned out to be 0.1% and the DC50 is 0.005 µM.
`O=C1CCC(N2Cc3cc(OC[C@@H]4CCCCN4Cc4cc(Cl)ccc4O)ccc3C2=O)C(=O)N1` (stereo partly drawn) [Compound I-50bj]: the Dmax stood at 25.8%, the remaining activity at up to 25 µM was 74.2% and the DC50 was over 25 µM.
On to `N#Cc1cc(CN2CCCC[C@H]2COc2ccc3c(c2)CN(C2CCC(=O)NC2=O)C3=O)ccn1` (stereo partly drawn) [Compound I-50bl], for which the Dmax was 17.6%, the remaining activity at up to 25 µM turned out to be 82.4% and the DC50 was over 25 µM.
For the compound `N#Cc1cccc(CN2CCCC[C@H]2COc2ccc3c(c2)CN(C2CCC(=O)NC2=O)C3=O)c1` (stereo partly drawn) [Compound I-50bm], the Dmax turned out to be 36%, the remaining activity at up to 25 µM came to 64% and the DC50 is over 25 µM.
For `O=C1CCC(N2Cc3cc(OC[C@@H]4CCCCN4Cc4ccnc(N5CCOCC5)c4)ccc3C2=O)C(=O)N1` (stereo partly drawn) [Compound I-50bn], the Dmax was determined as 76.2%, the remaining activity at up to 25 µM was determined as 23.8% and the DC50 turned out to be 0.897 µM.
For `O=C1CCC(N2Cc3cc(OC[C@@H]4CCCCN4Cc4cccc(N5CCOCC5)n4)ccc3C2=O)C(=O)N1` (stereo partly drawn) [Compound I-50bo], in that order: 57.4%, 42.6% and 20.8 µM.
For `Cc1ncc(CN2CCCC[C@@H]2COc2ccc3c(c2)CN(C2CCC(=O)NC2=O)C3=O)[nH]1` (stereo partly drawn) [Compound I-50bp] the same measures were 65.9%, 34.1% and 7 µM.
For `COC(=O)[C@@H]1CC[C@H](CN2CCCC[C@@H]2COc2ccc3c(c2)CN(C2CCC(=O)NC2=O)C3=O)C1` (stereo partly drawn) [Compound I-50bq] the same measures were 72.1%, 27.9% and 1.2 µM.
Turning to `O=C1CCC(N2Cc3cc(OC[C@H]4CCCCN4Cc4ccc(N5CCN(Cc6ccccc6)CC5)cc4)ccc3C2=O)C(=O)N1` (stereo partly drawn) [Compound I-50br], the Dmax was 94.1%, the remaining activity at up to 25 µM was found to be 5.9% and the DC50 worked out at 0.044 µM.
For `O=C1CCC(N2Cc3cc(OC[C@H]4CCCCN4Cc4ccc(C(=O)N5CCCC5)cc4)ccc3C2=O)C(=O)N1` (stereo partly drawn) [Compound I-50bs] the same measures were 94.5%, 5.5% and 0.018 µM.
For `O=C1CCC(N2Cc3cc(OC[C@H]4CCCCN4Cc4cnn(Cc5ccccc5)c4)ccc3C2=O)C(=O)N1` (stereo partly drawn) [Compound I-50bv] the same measures were 99.9%, 0.1% and 0.001 µM.
On to `O=C1CCC(N2Cc3cc(OC[C@@H]4CCCCN4Cc4cccc(O)c4O)ccc3C2=O)C(=O)N1` (stereo partly drawn) [Compound I-50bx], for which the Dmax was found to be 56.4%, the remaining activity at up to 25 µM came to 43.6% and the DC50 came to 21 µM.
As to `Cc1cc(CN2CCCC[C@H]2COc2ccc3c(c2)CN(C2CCC(=O)NC2=O)C3=O)no1` (stereo partly drawn) [Compound I-50by], the Dmax was found to be 25.7%, the remaining activity at up to 25 µM was found to be 74.3% and the DC50 is over 25 µM.
For `O=C1CCC(N2Cc3cc(OC[C@@H]4CCCCN4Cc4cccc(Cn5cccn5)c4)ccc3C2=O)C(=O)N1` (stereo partly drawn) [Compound I-50bz], in that order: 85.2%, 14.8% and 0.172 µM.
For `N#Cc1ccn2cc(CN3CCCC[C@H]3COc3ccc4c(c3)CN(C3CCC(=O)NC3=O)C4=O)nc2c1` (stereo partly drawn) [Compound I-50c], in that order: 38.1%, 61.9% and over 25 µM.
With `O=C1CCC(N2Cc3cc(OC[C@H]4CCCCN4Cc4cccn5ccnc45)ccc3C2=O)C(=O)N1` (stereo partly drawn) [Compound I-50ca], the Dmax stood at 76.3%, the remaining activity at up to 25 µM is 23.7% and the DC50 amounted to 0.239 µM.
For `CC(C)N1CCC(CN2CCCC[C@H]2COc2ccc3c(c2)CN(C2CCC(=O)NC2=O)C3=O)CC1` (stereo partly drawn) [Compound I-50cb] the same measures were 74.5%, 25.5% and 5.8 µM.
On to `O=C1CCC(N2Cc3cc(OC[C@@H]4CCCCN4Cc4cn[nH]c4)ccc3C2=O)C(=O)N1` (stereo partly drawn) [Compound I-50cc], for which the Dmax amounted to 71.7%, the remaining activity at up to 25 µM stood at 28.3% and the DC50 came out at 5.97 µM.
For `Cc1nc2ccccn2c1CN1CCCC[C@@H]1COc1ccc2c(c1)CN(C1CCC(=O)NC1=O)C2=O` (stereo partly drawn) [Compound I-50cd] the same measures were 69.7%, 30.3% and 3.74 µM.
Regarding `O=C1CCC(N2Cc3cc(OC[C@H]4CCCCN4Cc4cncnc4)ccc3C2=O)C(=O)N1` (stereo partly drawn) [Compound I-50ce], the Dmax came to 43.9%, the remaining activity at up to 25 µM came to 56.1% and the DC50 was over 25 µM.
Consider `CC(C)(C)OC(=O)NC1(CN2CCCC[C@@H]2COc2ccc3c(c2)CN(C2CCC(=O)NC2=O)C3=O)CCCC1` (stereo partly drawn) [Compound I-50cf], for which the Dmax was found to be 38.1%, the remaining activity at up to 25 µM came to 61.9% and the DC50 was over 25 µM.
On to `O=C1CCC(N2Cc3cc(OC[C@H]4CCCCN4Cc4ccc(OCCN5CCOCC5)cc4)ccc3C2=O)C(=O)N1` (stereo partly drawn) [Compound I-50cg], for which the Dmax was 92.7%, the remaining activity at up to 25 µM is 7.3% and the DC50 stood at 0.043 µM.
On to `CCOC(=O)c1n[nH]cc1CN1CCCC[C@@H]1COc1ccc2c(c1)CN(C1CCC(=O)NC1=O)C2=O` (stereo partly drawn) [Compound I-50ch], for which the Dmax came to 59.1%, the remaining activity at up to 25 µM worked out at 40.9% and the DC50 came out at 9.24 µM.
